From ChEMBL document CHEMBL1148060, “Biosynthetic Study and Radioisotope Labeling of Inostamycin” (J Nat Prod, 1994) come the findings set out here.

This data set concerns NRK. Nature of the data set: Cellular uptake in rat NRK cells assessed as [14C]inostamycin level after 2 hrs. The class given is ADME, cell-based.

SMILES strings stand for the structures.

On to `CCC[C@H](O)[C@@]1(CC)C[C@@H](C)[C@](O)([C@]2(C)C[C@H](C)[C@@H]([C@@H](CC)C(=O)[C@@H](C)[C@@H](O)[C@H](C)[C@H]3O[C@@](O)([C@H](CC)C(=O)O)[C@@H](C)[C@H](O)[C@H]3CC)O2)O1` [INOSTAMYCIN], for which the Activity result is listed as “Dose-dependent effect”.
